Test results from patent US8987195B2 (priority 2012, dated 2015).
Like-named read-outs stand apart in the source and are kept apart here.

Tests used:
[1] = molecular target: HCV NS3/4A protease genotype 1b (Hepatitis C virus genotype 1b, UniProt P26663); assay: HCV NS3/4A protease time-resolved fluorescence (TRF) assay, Ki against genotype 1b; type: biochemical; conditions: IC50 [gt-1b], NS3/4A protease TRF assay, genotype 1b enzyme 0.2 nM
In short: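 Time-resolved fluorescence readout of NS3/4A cleavage of 25 nM europium-labelled peptide over 2.5 h at room temperature, enzyme levels set for signal/background 10–30 (0.2, 0.4, 0.025 nM for 1b, A156T, 3a). Ki by IC50=Ki(1+[S]/KM).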

HCV genotype 1b replicon = assay: HCV replicon assay, genotype 1b replicon EC50; type: cell-based, Hepatitis C virus; conditions: Hepatitis C virus, HCV replicon, genotype 1b, read-out: EC50 [gt-1b]
In short: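 Compound dilution series incubated 24-48 h, G418 absent, with HCV genotype 1b replicon cell lines kept under G418 selection beforehand. Luciferase signal or replicon RNA, by ^32P hybridization/protection or TaqMan normalized to cyclophilin A, was measured after washing and lysis. Four-parameter fitting against DMSO control gave EC50.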

Compound | IC50 [1] [nM] | EC50 (HCV genotype 1b replicon) [nM] | other results
COCC1(S(=O)(=O)NC(=O)[C@@]23C[C@H]2/C=C\CCCCC[C@H](NC(=O)OCC2(C)CC2)C(=O)N2C[C@@]4(CCc5c(c(C(F)(F)F)nc6ccc(OC)cc56)O4)C[C@H]2C(=O)N3)CC1 [Example 494, (1-methylcyclopropyl)methyl [(2R,6S,12Z,13aS,14aR,16aS)-9′-methoxy-14a-({[1-(methoxymethyl)cyclopropyl]sulfonyl}carbamoyl)-5,16-dioxo-5′-(trifluoromethyl)-1,1′,2′,5,6,7,8,9,10,11,13a,14,14a,15,16,16a-hexadecahydrospiro[cyclopropa[e]pyrrolo[1,2-a][1,4]diazacyclopentadecine-2,3′-pyrano[2,3-c]quinolin]-6-yl]carbamate] | 0.018 | 1.73 | 
COCC1(S(=O)(=O)NC(=O)[C@@]23C[C@H]2/C=C\CCCCC[C@H](NC(=O)OC2(C)CCC2)C(=O)N2C[C@@]4(CCc5c(c(C(F)(F)F)nc6ccc(OC)cc56)O4)C[C@H]2C(=O)N3)CC1 [Example 495, 1-methylcyclobutyl [(2R,6S,12Z,13aS,14aR,16aS)-9′-methoxy-14a-({[1-(methoxymethyl)cyclopropyl]sulfonyl}carbamoyl)-5,16-dioxo-5′-(trifluoromethyl)-1,1′,2′,5,6,7,8,9,10,11,13a,14,14a,15,16,16a-hexadecahydrospiro[cyclopropa[e]pyrrolo[1,2-a][1,4]diazacyclopentadecine-2,3′-pyrano[2,3-c]quinolin]-6-yl]carbamate] | 0.007 | 1.45 | 
COCC1(S(=O)(=O)NC(=O)[C@@]23C[C@H]2/C=C\CCCCC[C@H](NC(=O)OCC(C)(C)C)C(=O)N2C[C@@]4(CCc5c(c(C(F)(F)F)nc6ccc(OC)cc56)O4)C[C@H]2C(=O)N3)CC1 [Example 496, 2,2-dimethylpropyl [(2R,65,12Z,13aS,14aR,16aS)-9′-methoxy-14a-({[1-(methoxymethyl)cyclopropyl]sulfonyl}carbamoyl)-5,16-dioxo-5′-(trifluoromethyl)-1,1′,2′,5,6,7,8,9,10,11,13a,14,14a,15,16,16a-hexadecahydrospiro[cyclopropa[e]pyrrolo[1,2-a][1,4]diazacyclopentadecine-2,3′-pyrano[2,3-c]quinolin]-6-yl]carbamate] | 0.027 | 6.93 | 
COCC1(S(=O)(=O)NC(=O)[C@@]23C[C@H]2/C=C\CCCCC[C@H](NC(=O)OCC(F)F)C(=O)N2C[C@@]4(CCc5c(c(C(F)(F)F)nc6ccc(OC)cc56)O4)C[C@H]2C(=O)N3)CC1 [Example 497, 2,2-difluoroethyl [(2R,6S,12Z,13aS,14aR,16aS)-9′-methoxy-14a-({[1-(methoxymethyl)cyclopropyl]sulfonyl}carbamoyl)-5,16-dioxo-5′-(trifluoromethyl)-1,1′,2′,5,6,7,8,9,10,11,13a,14,14a,15,16,16a-hexadecahydrospiro[cyclopropa[e]pyrrolo[1,2-a][1,4]diazacyclopentadecine-2,3′-pyrano[2,3-c]quinolin]-6-yl]carbamate] | 0.014 | 1.94 | 
COc1ccc2nc(C(F)(F)F)c3c(c2c1)CC[C@]1(C[C@H]2C(=O)N[C@]4(C(=O)NS(=O)(=O)C5(C)CC5)C[C@H]4/C=C\CCCCC[C@H](NC(=O)OCC4(C)CC4)C(=O)N2C1)O3 [Example 498, (1-methylcyclopropyl)methyl [(2R,6S,12Z,13aS,14aR,16aS)-9′-methoxy-14a-{[(1-methylcyclopropyl)sulfonyl]carbamoyl}-5,16-dioxo-5′-(trifluoromethyl)-1,1′,2′,5,6,7,8,9,10,11,13a,14,14a,15,16,16a-hexadecahydrospiro[cyclopropa[e]pyrrolo[1,2-a][1,4]diazacyclopentadecine-2,3′-pyrano[2,3-c]quinolin]-6-yl]carbamate] |  |  | IC50 ([1]; K+ salt): 0.009 nM; EC50 (HCV genotype 1b replicon; K+ salt): 0.607 nM
COc1ccc2nc(C(F)(F)F)c3c(c2c1)CC[C@]1(C[C@H]2C(=O)N[C@]4(C(=O)NS(=O)(=O)C5(C)CC5)C[C@H]4/C=C\CCCCC[C@H](NC(=O)OCC(F)F)C(=O)N2C1)O3 [Example 499, 2,2-difluoroethyl [(2R,6S,12Z,13aS,14aR,16aS)-9′-methoxy-14a-{[(1-methylcyclopropyl)sulfonyl]carbamoyl}-5,16-dioxo-5′-(trifluoromethyl)-1,1′,2′,5,6,7,8,9,10,11,13a,14,14a,15,16,16a-hexadecahydrospiro[cyclopropa[e]pyrrolo[1,2-a][1,4]diazacyclopentadecine-2,3′-pyrano[2,3-c]quinolin]-6-yl]carbamate] |  |  | IC50 ([1]; K+ salt): 0.004 nM; EC50 (HCV genotype 1b replicon; K+ salt): 0.433 nM
COCC1(S(=O)(=O)NC(=O)[C@@]23C[C@H]2/C=C\CCCCC[C@H](NC(=O)C2CCC(=O)N(C)C2)C(=O)N2C[C@@]4(CCc5c(c(C(F)(F)F)nc6ccc(OC)cc56)O4)C[C@H]2C(=O)N3)CC1 (stereo partly drawn) [Example 500, (2R,6S,12Z,13aS,14aR,16aS)-9′-methoxy-N-{[1-(methoxymethyl)cyclopropyl]sulfonyl}-6-{[(1-methyl-6-oxopiperidin-3-yl)carbonyl]amino}-5,16-dioxo-5′-(trifluoromethyl)-1,1′,2′,6,7,8,9,10,11,13a,14,15,16,16a-tetradecahydrospiro[cyclopropa[e]pyrrolo[1,2-a][1,4]diazacyclopentadecine-2,3′-pyrano[2,3-c]quinoline]-14a(5H)-carboxamide] | 0.014 | 435 | 
COc1ccc2nc(C(F)(F)F)c3c(c2c1)CC[C@]1(C[C@H]2C(=O)N[C@]4(C(=O)NS(=O)(=O)C5(C)CC5)C[C@H]4/C=C\CCCCC[C@H](NC(=O)O[C@@H]4C[C@@H]5C[C@@H]5C4)C(=O)N2C1)O3 [Example 513, (1R,3r,5S)-bicyclo[3.1.0]hex-3-yl [(2R,6S,12Z,13aS,14aR,16aS)-9′-methoxy-14a-{[(1-methylcyclopropyl)sulfonyl]carbamoyl}-5,16-dioxo-5′-(trifluoromethyl)-1,1′,2′,5,6,7,8,9,10,11,13a,14,14a,15,16,16a-hexadecahydrospiro[cyclopropa[e]pyrrolo[1,2-a][1,4]diazacyclopentadecine-2,3′-pyrano[2,3-c]quinolin]-6-yl]carbamate] | 0.01 | 1.42 | 
CCc1nc2ccc(OCCN3CCOCC3)cc2c2c1O[C@]1(CC2)C[C@H]2C(=O)N[C@]3(C(=O)NS(=O)(=O)C4(C)CC4)C[C@H]3/C=C\CCCCC[C@H](NC(=O)O[C@@H]3C[C@@H]4C[C@@H]4C3)C(=O)N2C1 [Example 516, (1R,3r,5S)-bicyclo[3.1.0]hex-3-yl {(2R,6S,12Z,13aS,14aR,16aS)-5′-ethyl-14a-{[(1-methylcyclopropyl)sulfonyl]carbamoyl}-9′-[2-(morpholin-4-yl)ethoxy]-5,16-dioxo-1,1′,2′,5,6,7,8,9,10,11,13a,14,14a,15,16,16a-hexadecahydrospiro[cyclopropa[e]pyrrolo[1,2-a][1,4]diazacyclopentadecine-2,3′-pyrano[2,3-c]quinolin]-6-yl}carbamate] |  |  | IC50 ([1]; HCl salt): 0.01 nM; EC50 (HCV genotype 1b replicon; HCl salt): 1.09 nM
COc1ccc2nc(C(F)(F)F)c3c(c2c1)OC[C@]1(C[C@H]2C(=O)N[C@]4(C(=O)NS(=O)(=O)C5(C)CC5)C[C@@H]4/C=C/CCCCC[C@H](NC(=O)OC(C)(C)C)C(=O)N2C1)O3 [Example 517, tert-butyl [(2R,6S,12E,13aR,14aR,16aS)-9′-methoxy-14a-{[(1-methylcyclopropyl)sulfonyl]carbamoyl}-5,16-dioxo-5′-(trifluoromethyl)-1,5,6,7,8,9,10,11,13a,14,14a,15,16,16a-tetradecahydrospiro[cyclopropa[e]pyrrolo[1,2-a][1,4]diazacyclopentadecine-2,3′-[1,4]dioxino[2,3-c]quinolin]-6-yl]carbamate] | 11.2 | 8.87 | 
